Reference: US6939850B2, “Altered human interleukin-1β convertase (ICE), NEDD-2, and C. elegans ced-3 polypeptides and uses therefor” (Massachusetts Institute of Technology, priority 1992, dated 2005)

Tested on: lumbar motoneurons
Experiment: Motoneuron death following limb bud removal
Assay type: in vivo, chick
Source text: Peptides. Two peptide inhibitors of ICE, Acetyl-Tyr-Val-Ala-Asp-aldehyde (Ac-YVAD-CHO) and Acetyl-Tyr-Val-Ala-Asp-chloromethylketone (Ac-YVAD-CMK) and two control peptide inhibitors, Acetyl-Leu-Leu-Arg-aldehyde (Ac-LLR-CHO; Leupeptin) and n-tosyl-Lys-chloromethyl-ketone (Tos-Lys-CMK) were synthesized by Bachem Biosciences (King of Prussia, Pa.) and shown by thin layer chromatography and HPLC to be greater than 98% pure. […] Methods for administration of peptides to examine effects on naturally occurring motoneuron cell death in vivo. Although cell death of lumbar motoneurons occurs between E6 and E12, the peak period of death (i.e., the greatest number of pyknotic cells) occurs on E8 (Oppenheim et al., J Comp. Neurol. 177:87-112 (1978)). For these experiments, embryos were given a single administration of an agent on E8 0 hr and sacrificed 15 hours later. […] Ac-YVAD-CMK and Tos-Lys-CMK were administered in a solution of DMSO/BSA, whereas Ac-YVAD-CHO and leupeptin (Sigma) were in BSA alone. The solutions (50-100 μl) were dropped onto the highly vascularized chorioallantoic membrane through a window in the shell. The control groups included both DMSO and BSA or vehicle alone. Embryos were killed and staged by the Hamburger-Hamilton series (Hamburger and Hamilton, J. Morph. 88:49-92 (1951)). The thoraco-lumbar spinal cord was dissected, fixed in Camoys or Bouins fixative, processed for paraffin histology, serially sectioned (10-12 μm) and stained with either thionin or hematoxylin and eosin. Pyknotic motoneurons were identified based on criteria previously described (Chu-Wang and Oppenheim, J. Comp. Neurol. 177:33-58 (1978); Clarke and Oppenheim In Methods in Cell Biology Series; Cell Death; eds: Schwartz and Osborne. Academic Press. New York, N.Y. In press.) and were counted in every 10th or 20th section through the entire lumbar enlargement. The total number of pyknotic cells were then estimated by multiplying these values by 10 or 20. All cell counts were performed by individuals blinded with regard to drug treatment of the embryos. Methods for limb bud removal experiments. A unilateral limb bud removal was performed on E2 as described previously (Oppenheim et al., J. Comp. Neurol. 177:87-112 (1978)). Because induced cell death following limb removal begins on E5 (before that there is no difference in the number of motoneurons between the operated or unoperated sides) embryos were given one treatment of Ac-YVAD-CHO (40 μg) or BSA (control) at E5-0 hr and another at E5-12 hours (total peptide administered was 80 μg). Animals were killed at E6-0 hr. Methods were the same as described above except the section thickness was 6-8 μm (see Method for Administration of Peptides, above). Methods for limb bud interdigital regions. Embryos were treated with 100 μg of peptide or vehicle in 50 μl on E6.0 and on E7.0 (total 200 μg) as described above (Chu-Wang and Oppenheim, J. Comp. Neurol. 177:33-58 (1978); Clarke and Oppenheim In Methods in Cell Biology Series; Cell Death; eds: Schwartz and Osborne. Academic Press. New York, N.Y. In press.) and killed at E7.5. The footpads were placed in Bouin's fixative and processed as described above (see Method of Limb Bud Removal, above). Pyknotic cells in all interdigital regions were counted in every 10th section (6-8 μm) of serial transverse sections through the entire footpad.

[1] = limb bud removal on E2, 40 μg at E5-0 hr and E5-12 hours, mean ±SD
[2] = unoperated side, 40 μg at E5-0 hr and E5-12 hours, mean ±SD

Acetyl-Tyr-Val-Ala-Asp-aldehyde [Ac-YVAD-CHO]
survival promoting effect (following limb bud removal): no survival promoting effect
Healthy Motoneurons (lumbar) on E6, Ipsilateral [1]: 11,109 ± 1592
Pyknotic Motoneurons (lumbar) on E6, Ipsilateral [1]: 317 ± 89
Healthy Motoneurons (lumbar) on E6, Contralateral [2]: 17,914 ± 1733
Pyknotic Motoneurons (lumbar) on E6, Contralateral [2]: 67 ± 13
